The text below walks through data of patent US12391643B2, “Substituted amino-thiol and amino-disulfide compounds, and uses thereof” (The Regents of the University of California, priority 2019, dated 2025).

“Also recorded” adds a separate entry of the source.

In series [1] the test system is cystinotic fibroblasts. In words: Intracellular NEM-cysteamine, NEM-cysteine, cystamine and mixed disulfide levels in cystinotic fibroblasts. The format is cell-based, human. The following applies: for NEM-cysteamine level during constant incubation: 100 uM drug, early timepoints, normalized against d4-cystine; for Intracellular cystamine level during constant drug incubation: FIG. 10. Here is the method:
(§1) In vitro experiments with isotopically enriched cystamine in cystinotic fibroblasts. Fibroblasts from a de-identified cystinotic patient were split 3× from 2 plates into 36 plates. Three different drugs were used for the experiments: cystamine (non-labeled), d2-cystamine, and d4-cystamine. There were two time series for each drug. The first was with constant drug incubation and included: 0, 10 min, 30 min, 1 h, 3 h, and 5 h. The other series included a washout after 3 h drug incubation, using fresh media following a PBS wash, and included the timepoints: 0, 30 min, 1 h, 3 h, 5 h, and 17 h. A direct quench and extraction technique were used for harvesting all cells to minimize further oxidation and metabolism. This included 2× washes with PBS that included 5 mM N-ethylmaleimide for trapping free thiol groups, and then scraping the plates with an acidified organic solvent extraction solution containing both d4-cystine and d4-cysteamine (plus d-8 cystamine) as internal standards. All samples were run on an API 4500 triple quadrupole LC-MS/MS, with selective reaction monitoring (SRM/MRM) for the following compounds of interest: cystine, NEM-cysteamine, NEM-cysteine, cystamine, and 2-(methylthio)ethylamine. All data fit well to single exponential curves (either decay or association), except where mentioned.
NEM-cysteamine and NEM-cysteine during constant incubation. Fibroblast cultures were exposed to drug (either cystamine, d2-cystamine, or d4-cystamine) and harvested as described on page 2 for the cystine depletion curve. NEM-cysteamine (or NEM-d1-cysteamine or NEM-d2-cysteamine) was measured for each respective plate and normalized against the signal for d4-cystine.
NEM-cysteamine during washout. Fibroblast cultures were exposed to drug (either cystamine, d2-cystamine, or d4-cystamine) for 3 h were then exposed to media for various timepoints and harvested as previously described.
NEM-cysteine during washout. Fibroblast cultures were exposed to drug (either cystamine, d2-cystamine, or d4-cystamine) for 3 h were then exposed to media for various timepoints and harvested as previously described.
Cystamine during constant drug incubation. Fibroblast cultures were exposed to drug (either cystamine, d2-cystamine, or d4-cystamine) for various timepoints following harvesting as described earlier. Cystamine could be measured in the non-labeled cystamine incubation as well as the d4-cystamine incubation. d2-cystamine could not be accurately measured due to a strong background interference signal corresponding to that mass. No cystamine could be measured in the washout experiments.

In a further series the test system is Pooled human hepatocytes. The series can be described thus: Hepatocyte elimination (in vitro metabolic stability, percent parent remaining by LC/MS/MS). The class given is in vitro ADME. The source says:
In vitro experiments with isotopically enriched cystamine and cysteamine in hepatocytes.
The assessment of in vitro metabolic stability provides a means to measure the susceptibility of a test compound to biotransformation by the liver. While liver microsomes primarily assess cytochrome P450 system-mediated metabolism (phase I metabolism), hepatocytes represent a complete, undisrupted metabolic system, including cofactors, and thus assess both phase I and phase II metabolism. In all cases, the metabolic stability of test compounds was determined by monitoring, via LC/MS/MS, the percent parent compound remaining versus time of incubation in human hepatocytes.
Pooled human hepatocytes (catalog number HMCS10, ThermoFischer Scientific) were thawed according to the manufacturers instructions. Thawed hepatocytes were washed by centrifugation and replated in Williams' Medium E supplemented with Heptocyte Plating Supplement Pack, Serum-containing.
Cells were diluted to 1,000,000 per ml in maintenance media (Williams' E Media supplemented with Hepatocyte Maintenance Supplement Pack, Serum-free). 500 μl of cell suspension was added to each well of a microtiter plate containing 500 μl of the deuterated test agent and placed on an orbital shaker at 120 rpm at 37 C. At the appropriate time point 50 μl aliquots were removed from the well and added to 50 μl of ice cold ethyl acetate and vortexed for 5 min and froze until chromatography analysis.

Series [2] has as its system cystinotic fibroblasts. The series can be described thus: Cystine depletion during constant drug exposure in cystinotic fibroblasts. The format is cell-based, human. The following applies: cystamine 50, 100, 200 μM; cysteamine 200 μM (FIG. 1). Here is the method: as §1
Following incubation, cells were washed 2× in PBS containing N-ethylmaleimide.
(§2) Fibroblasts from a de-identified cystinotic patient were split 3× from 2 plates into 18 plates. Two different drugs were used for the experiments: D4n-cystamine, and D8-cystamine. There were two time series for each drug. The first was with constant drug incubation and included: 0, 15 min, 30 min, 1 hr, and 3 hr. The other series included a washout after 3 hours of drug incubation, using fresh media following a PBS wash, and included the time-points: 0, 1 hr, 3 hr, and 16 hr. A direct quench and extraction technique was used for harvesting all cells to minimize further oxidation and metabolism. […] All samples were run on an API 4500 triple quadruple LC-MS/MS, with selective reaction monitoring (SRM/MRM) for the following compounds of interest: cystine, NEM-cysteamine, NEM-cysteine, and cystamine. All data fit well to single exponential curves (either decay or association), except where mentioned.

For series [3], the system named is cystinotic fibroblasts. The series can be described thus: Cystine re-accumulation after washout in cystinotic fibroblasts. The following applies: 3 h incubation with 100 μM cystamine, then cystamine-free media. The class given is cell-based, human. As for the experimental part:
as §1
Cystine measurement after washout: Fibroblast cultures were exposed to 100 uM cystamine/d2-cystamine/d4-cystamine for 3 h. Following incubation, cells were washed with PBS, and then incubated with regular media (containing FBS) for the following timepoints: 0 min, 30 min, 1 h, 3 h, 5 h, and 17 h. Cells were harvested identically as described previously.
as §2
Fibroblast cultures were exposed to 50 μM cystamine (D8 or D4n) for 3 hours. Following incubation, cells were washed with PBS and then incubated with regular mediate containing FBS for 1 h, 3 h, and 16 h. Cells were harvested as above. […] Cystine reaccumulation between D4n-cystamine and D8-cystamine are very similar, indicating similar levels of drug remaining during the washout timepoints (FIG. 15).

The test system of series [4] is cystinotic fibroblasts. The series can be described thus: Intracellular NEM-cysteamine, NEM-cysteine, cystamine and mixed disulfide levels in cystinotic fibroblasts. The class given is cell-based, human. The following applies: cystamine 50, 100, 200 μM compared with cysteamine 200 μM (FIG. 2).
In series [5] the test system is intracellular cystine (circulating white blood cells). The note with it: taken regularly; measured in circulating white blood cells; cited from earlier work.

Take `NCCSSCCN` [Cystamine]: the “NEM-cysteamine level during constant incubation” value in the series with cystinotic fibroblasts [1] is “faster/higher; also recorded: Higher levels of cysteamine”; with cystinotic fibroblasts [1] (listed as non-labeled cystamine) it was “highest”. The “Intracellular cystamine level during constant drug incubation” value in the series on cystinotic fibroblasts [1] is given as “deplete rapidly”; with cystinotic fibroblasts [1] (listed as cystamine) it was “depletes rapidly”. Further, the “NEM-cysteine level after 3 h incubation and washout” value in the series with cystinotic fibroblasts [1] (washout period) is “rise and increase”. Moreover, the results for the “Hepatocyte elimination, % remaining” value in the series with Pooled human hepatocytes (TIME 0 min), in the series with Pooled human hepatocytes (TIME 15 min) and with Pooled human hepatocytes (TIME 30 min) were 100%, 18.5% and 6.5%, respectively. Also, the “Reduction of intracellular cystine levels” value in the series with cystinotic fibroblasts [2] is listed as “effective in reducing intracellular cystine levels in a dose-response fashion”. Besides, the “Cystine level 17 h after washout versus plates not exposed to cystamine” value with cystinotic fibroblasts [3] is “identical to the 17 h cystine measurement”. The “Conversion of intracellular cystine to mixed disulfide (MD) of cysteine-cysteamine” value with cystinotic fibroblasts [4] is listed as “delayed”.

`NCCS` [Cysteamine, reference compound]: the “Depletion of intracellular cystine” value in series [5] is “up to 90%”. Also, the “Reduction of intracellular cystine levels” value in the series with cystinotic fibroblasts [2] is “effective and more rapid in its response time”.
